Earlier results on two compounds are cited in patent US6310089A, “Composition for the administration of a D1-agonists” (West Pharmaceutical Services Drug Delivery & Clinical …, priority 1998, dated 2001).

One series deals with Parkinson's disease. The note with it: D1 partial agonists.

Regarding `CN1Cc2ccccc2C2c3cccc4[nH]cc(c34)CC21` (single isomer, unassigned) [CY208.243], the “agonism at dopamine D1 receptors” value in the series with dopamine D1 receptors is on record as “partial agonists”. In addition, the evaluation outcome in the series with Parkinson's disease is given as “inconclusive results”.
With `Oc1cc2c(cc1O)C(c1ccccc1)CNCC2` (stereo not shown) [SKF 38393], the “agonism at dopamine D1 receptors” value in the series with dopamine D1 receptors is listed as “partial agonists”. In addition, the evaluation outcome in the series with Parkinson's disease is recorded as “inconclusive results”.
